Measured values published in patent US4100152A, “Peptides” (Takeda Chemical Industries, Ltd., priority 1976, dated 1978).

What was measured:
Type in all cases: in vivo
[1] = tested on: mice (ICR/JCL, male, 4 weeks old); assay: Activity-increasing action (spontaneous activity in activity wheel); details: ratio of effect to that of the same dose of TRH (TRH = 1), cumulative wheel rotations during 3 hours after i.v. administration
Experimental: (3) Activity-increasing action
Using groups of 10 mice (ICR/JCL, male, 4 weeks old), each mouse was placed in an activity wheel and the activity-increasing action of the medication on the mouse was observed. The cumulative number of rotations caused by the spontaneous activity of the mice during a period of 3 hours following the intravenous administration of compound (I) was compared with the number of revolutions for the control group.
(§1) The relative effects of compound (I) by the above 4 procedures were expressed in terms of the ratios of effect of the same dose of compound (I) as that of TRH with the effects of TRH being taken as unity.

[2] = tested on: mice (ICR/JCL, male, 4 weeks old); assay: Anaesthesia antagonism (pentobarbital sodium, recovery of righting reflex); details: ratio of effect to that of the same dose of TRH (TRH = 1), 55 mg/kg pentobarbital sodium i.p., compound i.v. after 10 minutes
[3] = tested on: male mice (ICR/JCL) with one caudate nucleus destroyed; assay: Dopamine activity-potentiating effect (apomorphine-induced turning, caudate nucleus destroyed, reserpine premedication); details: ratio of effect to that of the same dose of TRH (TRH = 1), compound given 30 minutes before 0.25 mg/kg apomorphine i.p., reserpine 2 mg/kg i.p. premedication
Experimental: (4) Dopamine activity-potentiating effect
Using groups of 10 male mice (ICR/JCL) with one of its caudate nuclei destroyed by suction the effects of compound (I) upon the number of turns and the percent incidence of head turning as caused by 0.25 mg/kg of apomorphine (I.P.), i.e., a dopamine-receptor stimulant, under the influence of premedication (18-22 hours) with 2 mg/kg of reserpine (i.p.) were examined.
Thus, compound (I) was given 30 minutes before the administration of apomorphine and the result was compared with that for the untreated (control group). This test was performed to ascertain the potentiating effect of the compound upon the central nervous system action of dopamine, the principle of the test being the same as that of the experiment performed by Everett et al. [Fed. Proc. 23, 198, (1964)] for testing the DOPA synergistic effect which involved the administration of Dl-DOPA.
as §1

[4] = tested on: TSH (thyroid stimulating hormone) release; assay: TSH-releasing activity (method of Schally et al.); details: ratio of effect to that of the same dose of TRH (TRH = 1); rats
Experimental: (1) TSH-releasing activity
Using rats, a test was performed in accordance with the method of Schally et al. [J. Biol. Chem. 244, 4077, (1969)].
as §1

| Compound | Spontaneous activity-increasing effect [1] | Anaesthesia antagonism [2] | Dopamine-potentiating effect [3] | TSH-releasing effect [4] |
| --- | --- | --- | --- | --- |
| NC(=O)[C@@H]1CCCN1C(=O)[C@H](Cc1c[nH]cn1)NC(=O)[C@@H]1CCC(=O)N1 [TRH, L-pyroglutamyl-L-histidyl-L-prolinamide] | 1 | 1 | 1 | 1 |
| Oct.His.Pip.NH2 [Oct-His-Pip-NH2] | 5 | 1.57 | 4.00 | 0.5 |
